These results are taken from patent US20180179596A1, “HISTONE MODIFICATION AGENTS FOR CANCER TREATMENT” (MOR RESEARCH APPLICATIONS LTD., priority 2015, published 2018).

The structures appear in SMILES notation.

Test [1] relates to histone H3 acetylation in NALM6 cells overexpressing KANSL1. Put plainly: Histone H3 acetylation quantification in NALM6 cells overexpressing KANSL1 after MG-149 treatment. It is filed as cell-based, human. Conditions: 20 μM MG-149 added 24 h after KANSL1 plasmid transfection; histones extracted 48 h after transfection; FIG. 15. The protocol: NALM6 cell line was grown in RPMI (ATCC) supplemented with 10% fetal bovine serum (FBS) (Life Technologies), 0.1% L-Glutamine and 0.1% Penicillin Streptomycin (PS) (Life Technologies). Cells were cultured in a humidified atmosphere in an incubator at 37° C. with 5% CO2. Plasmid overexpression transfection was done by electroporation, using the Amaxa® Nucleofector technology (Lonza). Purified plasmid was sent to Maxi-Prep (Hy-Labs) and a concentration of 2 μg was taken for the transfection. As a negative control, a Green Fluorescent Protein (GFP) plasmid provided by the Amaxa kit was used.
Histones were extracted 48 h after transfection. Total histone protein concentration was adjusted to 400 ng/μl. Histone acetylation quantification was analyzed according to the manufacture's protocol (Epigentek).

Test [2] relates to MYST type of histone acetyltransferase (Tip60 and MOF). To be noted: cited from earlier work.

As for `CCCCCCCc1ccc(CCc2cccc(O)c2C(=O)O)cc1` [MG-149], the “acetylation of histone H3 (total H3 acetylation level)” value in test [1] was “inhibited to near control levels”. Besides, the “selectivity toward MYST type histone acetyltransferase” value in test [2] was “selectivity toward the MYST type of histone acetyltransferase (Tip60 and MOF)”.
